The supplement of paper PMC10307832

Legend:
Assay in all cases: relative viability (nuclei count vs DMSO), 5 days (fraction); higher = more cells survive
AZD6482 + OSI-027 = compound: Cc1cc([C@@H](C)Nc2ccccc2C(=O)O)c2nc(N3CCOCC3)cc(=O)n2c1 [AZD6482] + COc1cccc2cc(-c3nc([C@H]4CC[C@H](C(=O)O)CC4)n4ncnc(N)c34)[nH]c12 [OSI-027] (partner 0.5 µM)
Procedure, shortened: (§1)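 A single step with final 0.05% Triton X-100, 1% formaldehyde and 1 ug/ml Hoechst fixed the cells and stained nuclei 5 days after treatment. Lung cancer cell lines in 1536-well plates had been treated by pin tool the day after seeding with one drug alone or a fixed anchor-drug dose plus five library-drug doses (not always all listed) in √10 steps, and nuclei were counted on 4× images. Relative viability is the ratio of nuclei in treated wells to nuclei in vehicle wells, taken as the median of duplicate plates.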

AZD6482 + Olaparib = compound: Cc1cc([C@@H](C)Nc2ccccc2C(=O)O)c2nc(N3CCOCC3)cc(=O)n2c1 [AZD6482] + O=C(c1cc(Cc2n[nH]c(=O)c3ccccc23)ccc1F)N1CCN(C(=O)C2CC2)CC1 [Olaparib] (partner 8 µM)
Procedure, shortened: as §1

AZD6482 + Decitabine = compound: Cc1cc([C@@H](C)Nc2ccccc2C(=O)O)c2nc(N3CCOCC3)cc(=O)n2c1 [AZD6482] + Nc1ncn([C@H]2C[C@H](O)[C@@H](CO)O2)c(=O)n1 [Decitabine] (partner 2 µM)
Procedure, shortened: as §1

[1] = compound: COc1cc2nc(N3CCCN(C)CC3)nc(NC3CCN(Cc4ccccc4)CC3)c2cc1OC + Nc1nc2[nH]cc(CCc3ccc(C(=O)N[C@@H](CCC(=O)O)C(=O)O)cc3)c2c(=O)[nH]1 [Pemetrexed] (partner 0.2 µM)
Procedure, shortened: as §1

Cell Line	relative viability (AZD6482 + OSI-027; first compound 0.08 µM)	relative viability (AZD6482 + OSI-027; first compound 0.253 µM)	relative viability (AZD6482 + OSI-027; first compound 0.8 µM)	relative viability (AZD6482 + OSI-027; first compound 2.53 µM)	relative viability (AZD6482 + OSI-027; first compound 8 µM)	relative viability (AZD6482 + Olaparib; first compound 0.08 µM)	relative viability (AZD6482 + Olaparib; first compound 0.253 µM)	relative viability (AZD6482 + Olaparib; first compound 0.8 µM)	relative viability (AZD6482 + Olaparib; first compound 2.53 µM)	relative viability (AZD6482 + Olaparib; first compound 8 µM)	relative viability (AZD6482 + Decitabine; first compound 0.08 µM)	relative viability (AZD6482 + Decitabine; first compound 0.253 µM)	relative viability (AZD6482 + Decitabine; first compound 0.8 µM)	relative viability (AZD6482 + Decitabine; first compound 2.53 µM)	relative viability (AZD6482 + Decitabine; first compound 8 µM)	relative viability ([1]; first compound 0.2 µM)	relative viability ([1]; first compound 0.6325 µM)	relative viability ([1]; first compound 2 µM)	relative viability ([1]; first compound 6.325 µM)
LU99A	0.301	0.276	0.325	0.203	0.3	0.259	0.273	0.255	0.28	0.24	0.803	0.858	0.968	0.801	0.775	0.17	0.185	0.177	0.187
NCI-H1355	0.287	0.323	0.384	0.256	0.298	0.597	0.63	0.708	0.522	0.564	0.346	0.362	0.363	0.341	0.35	1.06	1.03	1.01	0.945
HCC-78	0.316	0.315	0.32	0.265	0.303	0.663	0.641	0.533	0.383	0.416	0.555	0.462	0.646	0.474	0.442	0.912	0.899	0.918	1.01
NCI-H1563	0.771	0.749	0.738	0.7	0.619											0.646	0.9	0.879	0.896
HCC-15	0.672	0.61	0.666	0.385	0.485	0.692	0.662	0.737	0.697	0.768	0.648	0.614	0.571	0.488	0.556	0.216	0.225	0.214	0.208
EKVX	0.624	0.62	0.684	0.387	0.434	0.671	0.773	0.855	0.469	0.595	0.334	0.278	0.312	0.266	0.244	0.422	0.404	0.404	0.41
NCI-H2087	0.495	0.43	0.46		0.332	0.578	0.587	0.523	0.345	0.519	0.245	0.232	0.266	0.208	0.215	0.663	0.622	0.686	0.656
LK-2	0.222	0.2	0.177	0.196	0.177	0.916	0.731	0.581	0.73	0.432	0.34	0.315	0.288	0.241	0.301	0.311	0.276	0.296	0.273
NCI-H1437	0.983	0.855	1.07	0.471	0.567	0.644	0.672	0.651	0.599	0.557	0.572	0.523	0.607	0.572	0.407	0.279	0.293	0.36	0.324
